Data as given in ChEMBL document CHEMBL4311936, “Synthesis and structure-activity relationship studies of IgG-binding peptides focused on the C-terminal histidine residue” (Medchemcomm, 2019).
Bridge positions count the residues as written; N and C are the ends. Peptide text beside a SMILES is read from it.

Legend:
[1] = Binding affinity to IgG (unknown origin) assessed as dissociation constant; parameters: species or system Homo sapiens
Homo sapiens = species on record: Homo sapiens; test: Binding affinity to IgG (unknown origin) assessed as association rate constant

| Kd [1] | Ka (Homo sapiens) | SMILES |
| --- | --- | --- |
| 2.2 nM |  | CC(C)C[C@@H]1NC(=O)[C@H](Cc2cnc[nH]2)NC(=O)[C@H](Cc2c[nH]c3ccccc23)NC(=O)[C@H](C)NC(=O)[C@@H](NC(=O)[C@H](CC(=O)O)NC(=O)[C@@H]2CCCN2)CSSC[C@@H](C(=O)N[C@H](C(=O)N2CCC[C@@H]2C(N)=O)[C@@H](C)O)NC(=O)[C@H](Cc2c[nH]c3ccccc23)NC(=O)[C@H](C(C)C)NC(=O)[C@H](CC(C)C)NC(=O)[C@H](CCC(=O)O)NC(=O)CNC1=O |
| 2.45 nM |  | CC(C)C[C@@H]1NC(=O)[C@H](Cc2cnc[nH]2)NC(=O)[C@H](Cc2c[nH]c3ccccc23)NC(=O)[C@H](C)NC(=O)[C@@H]2CSSC[C@H](NC(=O)[C@H](Cc3c[nH]c4ccccc34)NC(=O)[C@H](C(C)C)NC(=O)[C@H](CC(C)C)NC(=O)[C@H](CCC(=O)O)NC(=O)CNC1=O)C(=O)N[C@@H]([C@@H](C)O)C(=O)N[C@H](C(=O)O)CSSC[C@H](N)C(=O)N[C@@H](CC(=O)O)C(=O)N2 |
|  | 741000 M⁻¹ s⁻¹ | CC(=O)N[C@@H](CC(=O)O)C(=O)N[C@H]1CSSC[C@@H](C(=O)N[C@H](C(=O)N[C@@H](Cc2ccccc2)C(=O)N[C@@H](Cc2cnc[nH]2)C(N)=O)[C@@H](C)O)NC(=O)[C@H](Cc2c[nH]c3ccccc23)NC(=O)[C@H](C(C)C)NC(=O)[C@H](CC(C)C)NC(=O)[C@H](CCC(=O)O)NC(=O)CNC(=O)[C@H](CCCCN)NC(=O)[C@H](Cc2cnc[nH]2)NC(=O)[C@H](Cc2ccc(O)cc2)NC(=O)[C@H](C)NC1=O (Ac-DCAYHKGELVWCTFH-NH2; disulfide 2-12) |
|  | 1.47e+06 M⁻¹ s⁻¹ | CC(=O)N[C@@H](CC(=O)O)C(=O)N[C@H]1CSSC[C@@H](C(=O)N[C@H](C(=O)N[C@@H](Cc2ccccc2)C(=O)N[C@@H](Cc2cnc[nH]2)C(N)=O)[C@@H](C)O)NC(=O)[C@H](Cc2c[nH]c3ccccc23)NC(=O)[C@H](C(C)C)NC(=O)[C@H](CC(C)C)NC(=O)[C@H](CCC(=O)O)NC(=O)CNC(=O)[C@H](CC(C)C)NC(=O)[C@H](Cc2cnc[nH]2)NC(=O)[C@H](Cc2ccc(O)cc2)NC(=O)[C@H](C)NC1=O (Ac-DCAYHLGELVWCTFH-NH2; disulfide 2-12) |
